The values that follow come from patent publication US4925834A, “3-methylene-4-androsten-17-ones, process for their production and pharmaceutical preparations containing them” (Schering Aktiengesellschaft, priority 1987, dated 1990).

This assay has as its system aromatase. Briefly: PMSG test in infantile female rats, orally (serum estradiol). Conditions: for Concentration in serum estradiol / % inhibition (against the PMSG control): 10 mg/animal, 2 × p.o., PMSG-treated infantile female rats; for Concentration in serum estradiol: mean with standard deviation, groups of 10; for % inhibition (against the PMSG control): serum estradiol; for effectiveness in oral application: 2×10 mg, PMSG test, in words. The class given is in vivo, rat. On the procedure:
The aromatase activity can be measured by the influence of the estrogen formation stimulated by PMSG. [J. Steroid. Biochem., 7 (1976) 787] Anit-tumor activity in humans of compounds which have a positive effect in the PMSG test is described in The Lancet, 1 Dec. 1984, ppg. 1237-1239.
In the so-called PMSG test 21-day-old female rats are pretreated subcutaneously every other day for a total of 7 times with 100 IU of PMSG each time. 1 hour before and 8 hours after the last PMSG application (d12) the animals receive the test substance by oral dose. They are killed 24 hours after the last PMSG application. The estradiol is examined radioimmunologically in the serum. The average value of the estradiol concentration in nmol/l with standard deviation is calculated for each group of 10 animals. The significance of the differences from the control group are examined by analysis of variance.
The percentage inhibition is calculated against the PMSG control.

In the case of `C=C1C=C2CC[C@@H]3[C@H](CC[C@]4(C)C(=O)CC[C@@H]34)[C@@]2(C)CC1` (stereo in doubt) [B, 3-methylene-4-androsten-17-one], the “Concentration in serum estradiol” value is 6.20 ± 0.80 nmol/L, the “% inhibition (against the PMSG control)” value is recorded as 0% and the “effectiveness in oral application” value was “no effectiveness”.

`C[C@]12CCC(=O)C(O)=C1CC[C@@H]1[C@@H]2CC[C@]2(C)C(=O)CC[C@@H]12` [A, 4-hydroxy-4-androstene-3,17-dione]: the “Concentration in serum estradiol” value is 6.08 ± 0.56 nmol/L, the “% inhibition (against the PMSG control)” value was 0% and the “effectiveness in oral application” value was “no effectiveness”.

`CSC[C@]12CCC(=CF)C=C1CC[C@@H]1[C@@H]2CC[C@]2(C)C(=O)CC[C@@H]12` [C, 3-fluoromethylene-19-methylthio-4-androsten-17-one]: the “Concentration in serum estradiol” value stood at 3.24 ± 0.81 nmol/L, the “% inhibition (against the PMSG control)” value is 45% and the “effectiveness in oral application” value was “markd inhibition effectiveness”.
